Laboratory results published in patent publication US20250228873A1, “C25 R AND S ISOMERS OF AMINOSTEROLS AND METHODS OF MAKING AND USING THE SAME” (Enterin, Inc., priority 2022, published 2025).
Values joined by “and” are separate entries in the source; they are usually repeats but may differ in a detail not shown here. Equal values may be shown once. Read-outs that look alike come from different tables or passages of the source.

Experiments:
[1] = Weight loss in ad lib fed mice (about 50 grams), i.p. every other day; assay type: in vivo, male Swiss Webster mice; details: i.p. 10 mg/kg every other day, food ad lib
Excerpt: Food was provided ad lib.
By 27 days both sets of treated mice had lost about 10% of their starting body weight.

PTPN12/PTP-PEST = molecular target: T1, PTPN12/PTP-PEST (Homo sapiens, UniProt Q05209); test: Phosphatase panel, DiFMUP fluorescence assay; assay type: biochemical
T1 construct: purchased Recation Biology Inc
T1 sequence (Q05209 1-780): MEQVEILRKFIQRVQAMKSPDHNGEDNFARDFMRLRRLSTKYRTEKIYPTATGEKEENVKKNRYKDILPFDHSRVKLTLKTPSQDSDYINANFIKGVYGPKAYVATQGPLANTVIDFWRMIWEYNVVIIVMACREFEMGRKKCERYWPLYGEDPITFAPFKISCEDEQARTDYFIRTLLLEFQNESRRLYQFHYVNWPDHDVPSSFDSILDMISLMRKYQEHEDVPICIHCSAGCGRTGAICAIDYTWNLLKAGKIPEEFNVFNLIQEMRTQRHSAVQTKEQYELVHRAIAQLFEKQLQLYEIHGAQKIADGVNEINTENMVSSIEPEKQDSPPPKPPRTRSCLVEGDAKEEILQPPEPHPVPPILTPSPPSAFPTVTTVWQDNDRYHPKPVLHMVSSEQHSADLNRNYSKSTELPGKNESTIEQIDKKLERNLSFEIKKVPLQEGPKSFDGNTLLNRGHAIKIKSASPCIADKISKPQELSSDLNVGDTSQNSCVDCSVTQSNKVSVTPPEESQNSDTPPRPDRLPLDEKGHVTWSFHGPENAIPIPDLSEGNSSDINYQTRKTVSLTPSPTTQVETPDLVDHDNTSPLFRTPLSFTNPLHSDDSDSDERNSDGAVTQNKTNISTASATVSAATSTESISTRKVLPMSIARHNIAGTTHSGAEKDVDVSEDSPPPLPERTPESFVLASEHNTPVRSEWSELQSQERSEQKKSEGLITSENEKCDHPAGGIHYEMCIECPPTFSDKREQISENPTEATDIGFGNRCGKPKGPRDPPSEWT

[2] = Weight gain in growing male mice (about 25 grams); assay type: in vivo; details: similar dosing regimen, FIG. 2
Experimental: In a second experiment, growing male mice, about 25 grams, were administered either compound following a similar dosing regimen. As in the previous experiment, both compounds affected weight gain.

[3] = molecular target: Tyrosine-protein phosphatase non-receptor type 11 (Homo sapiens, UniProt Q06124); test: Phosphatase panel, DiFMUP fluorescence assay; assay type: biochemical
PTPN1/PTP1B = molecular target: T2, PTPN1/PTP1B (Homo sapiens, UniProt P18031); test: PTP1B inhibition, fluorescence time-course, 10-dose IC50 (Example 2); assay type: biochemical
T2 construct: The enzyme was the human truncated form (1-321), recombinantly produced in Escherichia coli; host or cells: Escherichia coli
T2 sequence (P18031 1-321): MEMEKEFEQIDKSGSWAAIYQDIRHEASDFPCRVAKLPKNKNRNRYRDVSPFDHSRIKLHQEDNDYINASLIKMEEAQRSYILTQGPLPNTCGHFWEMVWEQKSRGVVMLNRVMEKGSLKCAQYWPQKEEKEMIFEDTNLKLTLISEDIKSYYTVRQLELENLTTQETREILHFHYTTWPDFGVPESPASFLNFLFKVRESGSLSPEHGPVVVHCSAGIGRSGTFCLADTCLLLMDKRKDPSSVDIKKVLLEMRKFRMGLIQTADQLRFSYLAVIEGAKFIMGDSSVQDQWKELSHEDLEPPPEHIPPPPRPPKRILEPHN

[4] = Weight loss, 3, 5, 10 mg/kg (FIG. 14); assay type: in vivo, C57bl/6 male mice; details: intraperitoneal 3, 5, 10 mg/kg once weekly over 2 weeks
[5] = Weight loss, i.p. once weekly over 6 weeks (FIG. 1C); assay type: in vivo, C57bl/6 male mice; details: intraperitoneal once weekly over 6 weeks
[6] = tested on: stomach, jejunum and ileum; test: GI tract transcriptome (RNAseq) after oral ENT-03, young vs aged mice; assay type: in vivo, C57bl/6 male mice
Experimental: Young (20 week) and aged (80 week) C57bl/6 male mice were administered ENT-03 (40 mg/kg) or vehicle (water) by oral gavage daily for 2 weeks. Over this period of time clinical observations were unremarkable as were the gross and microscopic examinations of the GI tract. The transcriptomes of the stomach, jejunum and ileum were analyzed by RNAseq technology. Comparative analyses of the transcripts from untreated animals identified numerous transcripts that differed in abundance between the corresponding tissues from old and young individuals. […] Thus, within these three distinct regions of the mouse GI tract, ageing is associated with changes in the transcriptome.
Statistical analysis of RNA-sequencing data was performed using R programming language. Transcripts with less than one read count per million reads in all samples of each tissue were removed. The raw count data for the samples were then normalised using trimmed mean of M-values normalisation and transformed with voom (Law et al., 2014), resulting in log 2-transformed counts per million with associated precision weights. […] Statistical comparisons were performed using linear modelling, as implemented in the Bioconductor package limma (Ritchie et al., 2015). Significance values (p-values) were adjusted for multiple testing using Benjamini-Hochberg procedure (Benjamini et al., 1995). For each comparison (e.g. group A versus group B), a positive log 2-transformed fold change indicates up-regulation in group A relative to group B.
To investigate the overlap between contrasts, the number of overlapping differentially expressed genes (defined using adjusted p-value <0.05) between all pairwise combinations of the comparisons performed were counted. For each comparison, the Jaccard index, defined as the intersection over the union, measures the similarity between the two contrasts under consideration. The p-value was calculated using a hypergeometric test taking into account the universe size under the assumption that the contrasts and genes are independent.

[7] = Table 5C, read-out: Compound IC50 (M) PTPN12/PTP-PEST
[8] = Table 19B, read-out: inhibitory activity PTPN12/PTP-PEST

Sequence of Tyrosine-protein phosphatase non-receptor type 11 (Q06124 247-517): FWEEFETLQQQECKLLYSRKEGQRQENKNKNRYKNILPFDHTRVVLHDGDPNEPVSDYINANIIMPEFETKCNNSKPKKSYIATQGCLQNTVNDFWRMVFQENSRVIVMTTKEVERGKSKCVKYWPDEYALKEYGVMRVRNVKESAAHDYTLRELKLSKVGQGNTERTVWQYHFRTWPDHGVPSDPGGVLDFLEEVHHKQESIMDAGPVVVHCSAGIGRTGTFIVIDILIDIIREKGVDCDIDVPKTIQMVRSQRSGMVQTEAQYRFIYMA

In the case of `CC(C)[C@@H](CC[C@@H](C)[C@H]1CC[C@H]2[C@@H]3[C@H](O)C[C@H]4C[C@@H](NCCCNCCCCNCCCN)CC[C@]4(C)[C@H]3CC[C@]12C)OS(=O)(=O)O` (single isomer, unassigned) [ENT-02 (MSI-1436), trodusquemine], the “effect on weight” value [1] is reported as “more severe decline”, the IC50 (PTPN12/PTP-PEST; [7]) is reported as 1.72e-06 M and the “effect on growth / weight gain” value [2] is reported as “suppressed growth as well as having induced consumption of body fat”. The IC50 [3] was 0.375 µM, the “Slope (signal/min)” value (PTPN1/PTP1B; Conc 1.00E−04 M) was −68 signal/min and the “Slope (signal/min)” value (PTPN1/PTP1B; Conc 1.11E−05 M) was 292 signal/min. The “Slope (signal/min)” value (PTPN1/PTP1B; Conc 1.23E−06 M) was 37260 signal/min, the “Slope (signal/min)” value (PTPN1/PTP1B; Conc 1.37E−07 M) was 40137 signal/min and the “Slope (signal/min)” value (PTPN1/PTP1B; Conc 1.52E−08 M) was 44021 signal/min. For the same compound, the “Slope (signal/min)” value (PTPN1/PTP1B; Conc 3.33E−05 M) was −440 signal/min, the “Slope (signal/min)” value (PTPN1/PTP1B; Conc 3.70E−06 M) was 16431 signal/min and the “Slope (signal/min)” value (PTPN1/PTP1B; Conc 4.12E−07 M) was 39959 signal/min. For the same compound, the “Slope (signal/min)” value (PTPN1/PTP1B; Conc 4.57E−08 M) was 42717 signal/min, the “Slope (signal/min)” value (PTPN1/PTP1B; Conc 5.08E−09 M) was 43513 signal/min and the HILLSLOPE (PTPN1/PTP1B; Table 5A) was −2.19.

With `CC(CCC[C@@H](C)[C@H]1CCC2C3C(CC[C@@]21C)[C@@]1(C)CC[C@H](NCCCNCCCCNCCCN)C[C@@H]1C[C@H]3O)C(=O)O` (single isomer, unassigned) [ENT-03] the “effect on weight” value [1] was “weight loss with kinetics similar to that seen following administration of ENT-02”, the “gradual recovery to the starting weight by” value [1] was about 45 days and the “nadir of weight decrease” value [1] was about 16 days. The “starting body weight lost by 27 days” value [1] was “about 10%”, the IC50 (PTPN12/PTP-PEST; [7]) was 8.61e-07 M and the IC50 (PTPN12/PTP-PEST; [8]) was 8.61e-07 M. The “clinical appearance other than weight loss” value [4] was “appeared clinically normal”, the “effect on weight” value [4] was “dose dependent weight loss” and the “clinical appearance other than weight loss” value [5] was “appeared clinically normal”. For the same compound, the “effect on weight” value [5] was “dose dependent weight loss”, the “effect on growth / weight gain” value [2] was “continued normal growth” and the IC50 [3] was 5 µM. The “clinical observations, gross and microscopic examinations of the GI tract” value ([6]; 40 mg/kg oral gavage daily for 2 weeks, young and aged mice) was “unremarkable”, the “genes differentially expressed on treatment” value ([6]; ileum, aged mice) was 1162 genes and the “genes differentially expressed on treatment” value ([6]; ileum, young mice) was 80 genes. The “genes whose expression changed significantly in response to exposure” value ([6]; jejunum and ileum, both young and aged mice) was “no more than 2 genes”, the “genes differentially expressed on treatment” value ([6]; jejunum, aged mice) was 382 genes and the “genes differentially expressed on treatment” value ([6]; jejunum, young mice) was 42 genes. For the same compound, the “genes down-regulated in ageing that are up-regulated by treatment in old mice” value ([6]; stomach) was 37 genes and 36 genes, the “genes differentially expressed on treatment (p(adj)<0.05)” value ([6]; stomach, aged mice) was 63 genes and the “ageing genes further down regulated in the ageing direction by treatment” value ([6]; stomach, young mice) was 12 genes. For the same compound, the “genes differentially expressed on treatment (p(adj)<0.05)” value ([6]; stomach, young mice (20 weeks)) was 13 genes.

`CC(CCC[C@@H](C)[C@H]1CCC2C3C(CC(O)[C@@]21C)[C@@]1(C)CC[C@H](NCCCNCCCCN)C[C@@H]1C[C@H]3O)C(=O)O` (single isomer, unassigned) [ENT-05] showed an IC50 (PTPN12/PTP-PEST; Table 18B, read-out: inhibitory activity PTPN12/PTP-PEST) of over 0.0001 M.

Work on `CC(CCC[C@@H](C)[C@H]1CCC2C3C(CC[C@@]21C)[C@@]1(C)CC[C@H](NCCCNCCCCN)C[C@@H]1C[C@H]3O)C(=O)O` (single isomer, unassigned) [ENT-06] yielded an IC50 (PTPN12/PTP-PEST; [8]) of 8.62e-07 M.
